# Where two headings read alike, the source gives them in different places.
# How the values were obtained:
# [1] = test system: Respiratory Syncytial Virus (RSV) long strain; assay: microbe, parasite or virus in culture; assay type: cell-based; conditions: human respiratory syncytial virus, Tables A and B list compounds by EC50 band
# In short: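 CPE-reduction format: viability measured colorimetrically with CCK-8 (450 nm, 630 nm reference) after 3-4 h, following 5-day infection at 37 °C, 5% CO2. Cells were HEp-2; inoculum 100 TCID50/well; duplicate 9-point 1/3 series starting at 100 μM or 1 μM.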
# [2] = Cytotoxicity Determination (CCK-8, without addition of virus); assay type: cell-based; conditions: human
# In short: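 Cytotoxicity was measured by CCK-8 after 3-4 hours at 37 °C, following 5 days of uninfected exposure at 37 °C and 5% CO2. Compounds ran as duplicate 7-point 1/2 dilutions starting at 100 μM, with 1% final DMSO. HEp-2 cells had been plated at 1,500/well the day before.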
# recombinant RSV complex = recombinant RSV complex (Human respiratory syncytial virus A, UniProt P28887); assay: RSV Polymerase Inhibition Assay; assay type: biochemical
# In short: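 Inhibition measured as reduced incorporation of radiolabel into RNA products, detected by scintillation counting. Reactions: recombinant RSV complex (10 nM), RNA oligonucleotides, Tris-HCl pH 7.5, 6 mM MgCl2, inhibitor titration, 2 h at 30 °C, EDTA stop.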
# RSV replicon = assay: microbe, parasite or virus in culture; assay type: cell-based; conditions: human respiratory syncytial virus, read-out: EC50, the concentration of the drug required for reducing RSV replicon RNA by 50%
# [3] = HEp-2, 120 h, read-out: 50% effective concentration (EC50), HEp-2 cells infected with RSV long strain, 5 days, CCK-8 readout
# [4] = 50% cytotoxicity concentration (CC50)
# [5] = 120 h, read-out: 50% effective concentration (EC50), HEp-2 cells infected with RSV long strain, 5 days, CCK-8 readout
# [6] = no virus, 5 days, CCK-8 readout, Tables C and D list compounds by CC50 band
# Sequence of recombinant RSV complex (P28887 whole entry): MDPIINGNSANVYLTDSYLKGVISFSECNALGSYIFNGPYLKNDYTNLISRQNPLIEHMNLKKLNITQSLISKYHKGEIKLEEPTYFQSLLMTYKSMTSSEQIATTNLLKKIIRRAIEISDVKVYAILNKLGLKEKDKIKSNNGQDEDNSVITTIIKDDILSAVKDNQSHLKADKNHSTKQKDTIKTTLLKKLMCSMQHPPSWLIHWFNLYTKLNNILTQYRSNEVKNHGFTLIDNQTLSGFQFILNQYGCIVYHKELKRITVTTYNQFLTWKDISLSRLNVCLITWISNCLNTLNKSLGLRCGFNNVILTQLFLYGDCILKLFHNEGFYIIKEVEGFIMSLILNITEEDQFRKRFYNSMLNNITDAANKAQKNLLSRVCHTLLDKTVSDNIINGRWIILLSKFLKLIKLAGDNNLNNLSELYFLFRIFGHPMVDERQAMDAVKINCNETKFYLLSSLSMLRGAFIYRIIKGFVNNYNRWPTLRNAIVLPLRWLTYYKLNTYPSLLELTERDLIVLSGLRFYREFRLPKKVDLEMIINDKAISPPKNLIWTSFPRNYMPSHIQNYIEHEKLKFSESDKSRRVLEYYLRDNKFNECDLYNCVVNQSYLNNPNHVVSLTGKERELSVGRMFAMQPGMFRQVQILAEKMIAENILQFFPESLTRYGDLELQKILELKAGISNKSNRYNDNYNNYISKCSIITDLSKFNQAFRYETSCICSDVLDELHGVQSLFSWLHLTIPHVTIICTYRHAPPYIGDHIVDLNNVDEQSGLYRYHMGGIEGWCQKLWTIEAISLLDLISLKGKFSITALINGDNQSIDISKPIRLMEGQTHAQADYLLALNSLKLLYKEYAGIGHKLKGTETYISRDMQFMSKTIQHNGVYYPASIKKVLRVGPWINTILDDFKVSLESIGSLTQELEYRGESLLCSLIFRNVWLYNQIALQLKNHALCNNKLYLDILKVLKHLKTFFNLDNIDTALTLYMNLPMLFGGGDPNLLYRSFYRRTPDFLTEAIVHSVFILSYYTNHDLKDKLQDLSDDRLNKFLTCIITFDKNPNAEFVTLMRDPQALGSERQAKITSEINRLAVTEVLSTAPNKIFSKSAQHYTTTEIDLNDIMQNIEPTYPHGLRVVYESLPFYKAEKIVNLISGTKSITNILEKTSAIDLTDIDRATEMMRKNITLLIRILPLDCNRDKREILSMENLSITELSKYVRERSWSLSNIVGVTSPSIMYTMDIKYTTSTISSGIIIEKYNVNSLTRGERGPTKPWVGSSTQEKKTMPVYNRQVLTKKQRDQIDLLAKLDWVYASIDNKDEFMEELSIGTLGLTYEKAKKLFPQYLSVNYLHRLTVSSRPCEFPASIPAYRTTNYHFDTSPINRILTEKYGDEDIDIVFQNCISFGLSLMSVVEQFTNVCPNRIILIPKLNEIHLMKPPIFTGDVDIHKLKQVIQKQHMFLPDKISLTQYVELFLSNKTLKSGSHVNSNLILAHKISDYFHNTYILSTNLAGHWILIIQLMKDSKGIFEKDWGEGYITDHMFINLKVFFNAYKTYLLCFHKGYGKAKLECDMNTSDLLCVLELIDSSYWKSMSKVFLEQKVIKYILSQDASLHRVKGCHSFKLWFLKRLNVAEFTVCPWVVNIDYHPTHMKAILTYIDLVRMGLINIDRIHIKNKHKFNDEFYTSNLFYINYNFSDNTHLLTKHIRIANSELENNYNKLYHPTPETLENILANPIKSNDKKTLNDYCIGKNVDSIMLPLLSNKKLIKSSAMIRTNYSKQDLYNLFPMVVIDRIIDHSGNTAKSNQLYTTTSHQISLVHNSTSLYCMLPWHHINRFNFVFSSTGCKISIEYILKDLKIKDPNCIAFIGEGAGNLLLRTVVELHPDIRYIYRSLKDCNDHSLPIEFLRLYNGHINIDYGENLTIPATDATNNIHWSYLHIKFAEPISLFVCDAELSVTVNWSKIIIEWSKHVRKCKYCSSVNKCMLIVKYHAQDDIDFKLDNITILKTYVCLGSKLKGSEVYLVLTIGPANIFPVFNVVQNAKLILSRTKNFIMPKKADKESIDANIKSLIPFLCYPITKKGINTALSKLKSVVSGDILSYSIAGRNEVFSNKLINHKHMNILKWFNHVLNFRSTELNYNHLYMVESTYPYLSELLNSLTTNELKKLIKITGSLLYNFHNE
# Sequence of recombinant RSV complex (P03421 whole entry, further chain): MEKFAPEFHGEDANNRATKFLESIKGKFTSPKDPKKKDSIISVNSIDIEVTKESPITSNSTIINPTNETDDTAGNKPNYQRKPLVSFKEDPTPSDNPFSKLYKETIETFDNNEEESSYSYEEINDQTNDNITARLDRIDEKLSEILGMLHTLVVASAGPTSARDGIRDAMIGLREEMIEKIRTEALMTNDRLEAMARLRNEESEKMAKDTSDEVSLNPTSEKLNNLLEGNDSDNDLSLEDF
SMILES,"EC50 [1, 3] [µM]","CC50 at 5 days [2, 4] [µM]",IC50 (recombinant RSV complex) [µM],EC50 (RSV replicon) [µM],"EC50 [1, 5] [µM]","CC50 at 5 days [2, 6] [µM]"
COc1cc(C(=O)NCC(O)(c2cc(C(C)(C)N)cc(-c3ccc(C#N)cc3)n2)C(F)(F)F)ccc1OCCO (stereo not shown) [Compound 623b],< 1,> 100,< 1,< 1,–,–
COc1cc(C(=O)NCC(O)(c2cc(C(N)CO)cc(-c3ccc(F)c(Cl)c3)n2)C(F)(F)F)ccc1OC1CC1 (stereo not shown) [Compound 528],< 1,10 to 100,< 1,< 1,–,–
CC(C)(N)c1cc(-c2ccc(F)cc2)nc(C(O)(CNC(=O)c2ccc3c(c2)CC(=O)N3)C(F)(F)F)c1 (stereo not shown) [Compound 571],< 1,10 to 100,< 1,< 1,–,–
COc1cc(C(=O)NCC(=O)c2cc3c(c(-c4ccc(F)c(Cl)c4)n2)OCCC3)ccc1OCCO [Compound 304],< 1,> 100,< 1,< 1,–,–
COc1cc(C(=O)NCC(O)(c2ccc(OC)c(-c3ccc(F)c(Cl)c3)n2)C(F)(F)F)ccc1OC1CC1 (stereo not shown) [Compound 370],–,> 100,< 1,< 1,< 1,–
COc1cc(C(=O)NCC(C)(O)c2cc(C(C)(C)N)cc(-c3ccc(F)cc3)n2)ccc1OC1CC1 (stereo not shown) [Compound 574],< 1,10 to 100,< 1,< 1,–,–
COc1cc(C(=O)NCC(O)(c2ccc(OC)c(-c3ccc(F)c(Cl)c3)n2)C(F)(F)F)ccc1OC1CCNC1=O (stereo not shown) [Compound 349],< 1,10 to 100,< 1,< 1,–,–
COc1cc(C(=O)NCC(O)(c2cc(C(C)N)cc(-c3ccc(F)c(Cl)c3)n2)C(F)(F)F)ccc1OC1CC1 (stereo not shown) [Compound 459],< 1,–,< 1,< 1,–,10 to 100
COc1cc(C(=O)NCC(O)(CO)c2ccc(OC)c(-c3ccc(F)c(Cl)c3)n2)ccc1OCCO (stereo not shown) [Compound 176],< 1,> 100,< 1,< 1,–,–
COc1cc(C(=O)NCC(C)(O)c2ccc(OC)c(-c3ccc(F)c(Cl)c3)n2)ccc1OCC(F)F (stereo not shown) [Compound 372],< 1,10 to 100,< 1,< 1,–,–
COc1cc(C(=O)NCC(O)(c2cc(C(C)(C)N)cc(-c3ccc(C#N)cc3)n2)C(F)(F)F)ccc1OC1CC1 (stereo not shown) [Compound 527],< 1,–,< 1,< 1,–,10 to 100
COc1cc(C(=O)NCC(C)(O)c2cc3c(c(-c4c[nH]c5c(F)cccc45)n2)OCC3(C)C)ccc1OCCF (stereo not shown) [Compound 228],< 1,> 100,< 1,< 1,–,–
COc1cc(C(=O)NC[C@@](O)(c2cc3c(c(-c4ccc(F)cc4)n2)OCC3(N)CO)C(F)(F)F)ccc1OC1CC1 (stereo partly shown) [Compound 653],< 1,> 100,< 1,< 1,–,–
COc1cc(C(=O)NCC(C)(O)c2cccc(-c3csc4c(F)cccc34)n2)ccc1OCCO (stereo not shown) [Compound 143],< 1,10 to 100,< 1,< 1,–,–
CCNC(C)(C)c1cc(-c2ccc(F)cc2)nc(C(O)(CNC(=O)c2ccc(OC3CC3)c(OC)c2)C(F)(F)F)c1 (stereo not shown) [Compound 388],< 1,10 to 100,< 1,< 1,–,–
"COc1cc(C(=O)NCC(O)(c2ccc(OC)c(-c3ccc(F)c(Cl)c3)n2)C2CC2)ccc1OCC(N)=O (single isomer, unassigned) [Compound 431]",< 1,10 to 100,< 1,< 1,–,–

SMILES,"EC50 [1, 3] [µM]","CC50 at 5 days [2, 4] [µM]",IC50 (recombinant RSV complex) [µM],EC50 (RSV replicon) [µM],"EC50 [1, 5] [µM]","CC50 at 5 days [2, 6] [µM]"
COc1cc(C(=O)NCC(O)(c2ccc(OC)c(-c3ccc(F)c(Cl)c3)n2)C(F)F)ccc1OCCO (stereo not shown) [Compound 436],< 1,10 to 100,< 1,< 1,–,–
COc1cc(C(=O)NCC(O)(c2cc(C(C)(C)NC(N)=O)cc(-c3ccc(F)c(Cl)c3)n2)C(F)(F)F)ccc1OC1CC1 (stereo not shown) [Compound 516],< 1,10 to 100,< 1,< 1,–,–
COc1cc(C(=O)NCC(O)(c2cc3c(c(-c4ccc(Cl)cc4)n2)OCC3(C)N)C(F)(F)F)ccc1CO[C@@H](C)O (stereo partly shown) [Compound 646],< 1,10 to 100,< 1,< 1,–,–
COc1cc(C(=O)NCC(F)(c2ccc(OC)c(-c3ccc(F)c(Cl)c3)n2)C(F)(F)F)ccc1OC1CCNC1=O (stereo not shown) [Compound 344],< 1,10 to 100,< 1,< 1,–,–
COc1cc(C(=O)NCC(O)(c2cc3c(c(-c4ccc(F)cc4)n2)OCC3(N)C(C)C)C(F)(F)F)ccc1OC1CC1 (stereo not shown) [Compound 560],–,10 to 100,< 1,< 1,< 1,–
COc1cc(C(=O)NCC(O)(c2cc(C(C)(N)CF)cc(-c3ccc(F)c(Cl)c3)n2)C(F)(F)F)ccc1OCCO (stereo not shown) [Compound 540],–,10 to 100,< 1,< 1,< 1,–
COc1cc(C(=O)NCC(O)(c2cc(C3(N)COC3)cc(-c3ccc(F)cc3)n2)C(F)(F)F)ccc1OC1CC1 (stereo not shown) [Compound 595],< 1,10 to 100,< 1,< 1,–,–
COc1cc(C(=O)NC[C@@](O)(c2cc(C(C)(C)N)cc(-c3ccc(F)cc3)n2)C(F)(F)F)ccc1OC[C@@H](C)O [Compound 545],< 1,10 to 100,< 1,< 1,–,–
CNC(C)c1cc(-c2ccc(F)c(Cl)c2)nc(C(O)(CNC(=O)c2ccc(OC3CC3)c(OC)c2)C(F)(F)F)c1 (stereo not shown) [Compound 466],< 1,10 to 100,< 1,< 1,–,–
COc1cc(C(=O)NCC(O)(c2ccc(OC)c(-c3ccc(F)c(Br)c3)n2)C(F)(F)F)ccc1OCC(N)=O (stereo not shown) [Compound 443],< 1,10 to 100,< 1,< 1,–,–
COc1cc(C(=O)NCC(C)(O)c2ccc(OC)c(-c3ccc(F)c(Cl)c3)n2)ccc1OC1CC1 (stereo not shown) [Compound 369],< 1,10 to 100,< 1,< 1,–,–
COc1cc(C(=O)NCC(O)(Cn2cncn2)c2ccc(OC)c(-c3ccc(F)c(Cl)c3)n2)ccc1OCCO (stereo not shown) [Compound 194],< 1,> 100,< 1,< 1,–,–
CNC(C)(C)c1cc(-c2ccc(F)c(Cl)c2)nc(C(O)(CNC(=O)c2ccc(OC[C@@H](C)O)c(OC)c2)C(F)(F)F)c1 (stereo partly shown) [Compound 486],< 1,10 to 100,< 1,< 1,–,–
COc1cc(C(=O)NCC(O)(c2cc(C(C)(C)N)cc(-c3ccc(F)cc3)n2)C(F)(F)F)ccc1OCC(N)=O (stereo not shown) [Compound 580],–,> 100,< 1,< 1,< 1,–
COc1cc(C(=O)NCC(C)(F)c2ccc(OC)c(-c3ccc(F)c(Cl)c3)n2)ccc1OCCO (stereo not shown) [Compound 365],< 1,10 to 100,< 1,< 1,–,–

# — patent US11021444B2, “Antiviral compounds” (priority 2013, dated 2021)
